{"source": "patent US9180163B2", "about": "“Parstatin peptides” (priority 2009, dated 2015)", "key": {"[1]": {"system": "retinal neovascularization in C57BL/6 mice", "assay_type": "in vivo", "conditions": "5 μg intravitreal P12 and P15; P17; vs vehicle (PBS or DMSO)", "excerpt": "Parstatin (1-41), hydrophobic parstatin (1-26) fragment and hydrophilic parstatin (24-41) fragment were used in an in vivo mouse model of retinal neovascularization. In particular, oxygen-induced retinopathy was used to generate retinal neovascularization as a preclinical disease model for retinopathy of prematurity and other retinal neovascular diseases such as diabetic retinopathy. In this model, exposing newborn mice to hyperoxia prompts regression or delay of retinal vascular development, followed by abnormal angiogenesis after their return to normal oxygen levels. Mainly, this model mirrors the events that occur during retinopathy of prematurity, when infants are removed from oxygen-rich incubators, a condition involving pathological neovascularization that can affect premature infants and result in permanent visual loss. In recent years, the use of this model has been extended to the general study of ischemic vasculopathies, such us diabetic retinopathy, and related antiangiogenic interventions, and it is now used extensively in both basic and applied research environments.\nPathogen-free C57BL/6 mice were treated in accordance with the Association for Research in Vision and Ophthalmology Statement for the Use of Animals in Ophthalmic and Vision Research and the guidelines of the Animal Care and Use Committee at local University Medical School. Litters of 7-day old (P7) mice were exposed to an atmosphere of 75% oxygen in an airtight incubator for 5 days (P12), after which they were returned to room air for 5 days (P17). For quantification of oxygen-induced retinal neovascularization, mice on P17 were given an intraocular injection of 1 μl of rat anti-mouse platelet endothelial cell adhesion molecule-1 (PECAM-1) antibody (Pharmingen, San Jose, Calif.) under a dissecting microscope with Harvard pump microinjection apparatus. Mice were euthanized 12 hours after injection and eyes were fixed in PBS-buffered formalin for 5 hours. […] Retinal flat mounts were prepared and assessed with fluorescence microscope using imaging software. […]"}, "[2]": {"system": "VEGF-induced retinal leukostasis in C57BL/6J mice", "experiment": "VEGF-induced retinal leukostasis model", "assay_type": "in vivo, mouse", "conditions": "for reduction of firmly adhering leukocytes vs VEGF-treated controls: 5 μg co-injected with VEGF; for firmly adhering leukocytes: 5 μg co-injected with VEGF (10 μM), 6 h", "experimental": "Inflammatory leukocyte accumulation is a common feature of major ocular diseases. […] VEGF, which is a potent chemoattractant for leukocytes, is increased in ischemic retina and is necessary for retinal neovascularization to occur. Parstatin (1-41), hydrophobic parstatin (1-26) fragment and hydrophilic parstatin (24-41) fragment were used in an in vivo mice model of VEGF-induced retinal leukostasis.\nC57BL/6J (4-5 week-old) mice were anesthetized with ketamine hydrochloride (100 mg/kg body weight) and xylazine (4 mg/Kg body weight) and the pupils were dilated with 1% tropicamide. Intravitreal injections of 1 μl solutions of 10 μM VEGF, which is the optimal concentration for promoting leukostasis, or parstatin (1-41) or parstatin (24-41) in phosphate buffered saline (PBS) or PBS alone or the combinations were administered. Also, intravitreal injections of 1 μl solutions of parstatin (1-26) in dimethyl sulphoxide (DMSO) or DMSO alone were administered to assess leukostasis. Six hours after intravitreal injections, which was the optimal time determined for VEGF-induced leukostasis, animals were perfused with PBS to remove intravascular content, including nonadherent leukocytes. Perfusion with FITC-conjugated Concanavalin A (40 μg/ml in PBS, Vector Labs, Burlingame, Calif.) was then performed to label adherent leukocytes and vascular endothelial cells, followed by removal of residual unbound lectin with PBS perfusion. Retinal flat mounts were prepared and examined with the Axioskop microscope and images were digitized. The total numbers of leukocytes adhering to the retinal vessels were counted at 200× by the same investigator, with the investigator being masked as to the nature of the specimen."}, "[3]": {"system": "choroidal neovascularization in C57BL/6J mice", "assay_type": "in vivo", "conditions": "10 μg intravitreal after laser and day 7; assessed day 14; vs vehicle (PBS or DMSO)", "experimental": "Parstatin (1-41), hydrophobic parstatin (1-26) fragment and hydrophilic parstatin (24-41) fragment were used in an in vivo mouse model of choroidal neovascularization. In particular, laser photocoagulation-induced rupture of Bruch's membrane was used to generate choroidal neovascularization as a preclinical disease model for age-related macular degeneration. Pathogen-free C57BL/6J (4-5 week-old) mice were treated in accordance with the Association for Research in Vision and Ophthalmology Statement for the Use of Animals in Ophthalmic and Vision Research and the guidelines of the Animal Care and Use Committee at local University Medical School.\nC57BL/6J (4-5 week-old) mice were anesthetized with ketamine hydrochloride (100 mg/kg body weight) and xylazine-(4 mg/Kg body weight) and the pupils were dilated with 1% tropicamide. Laser photocoagulation (75 μm spot size, 0.1 sec duration, 120 mW) was performed in the 9, 12, and 3 o'clock positions of the posterior pole of the retina with the slit lamp delivery system of an Oculight GL diode laser (Index, Mountain View, Calif.) and a handheld cover slip as a contact lens to view the retina. Production of a bubble at the time of laser, which indicates rupture of Bruch's membrane, is an important factor in obtaining CNV. Therefore, only burns in which a bubble was produced were included in the study. Two weeks after rupture of Bruch's membrane, anesthetized mice were perfused with 50 mg/ml fluorescein-labelled-dextran (2×10^6 average molecular weight, Sigma-Aldrich, St. Louis, Mo.). The eyes were then dissected and fixed in 10% Formalin for 3 hours and choroidal flat mounts were examined by fluorescence microscopy. Image-Pro Plus software (Media Cybernetics, Silver Spring, Md.) was used to measure the total area of CNV at each rupture site by personnel blinded as to study treatments and groups.\nIntraocular injections of parstatin peptides were performed with a Harvard pump microinjection apparatus and pulled glass micropipets. […] Choroidal neovascularization was assessed 14 days after laser treatment."}, "[4]": {"system": "corneas of Sprague-Dawley rats", "experiment": "corneal histopathology after chemical burn (vessels, neutrophils)", "assay_type": "in vivo, rat", "conditions": "2×50 μg, day 7", "experimental": "After the above-described processes were performed, the rats were sacrificed (7 days) and the eyes were excised. All eyes were sectioned (4 μm) and stained with hematoxylin-eosin. Two independent pathologists, in a blinded manner, evaluated the microvessel density and the inflammatory cell infiltration in each slide. Total corneal vascular vessels and neutrophils were counted at 200× in seven representative stained tissue sections for each eye, covering all cornea area and having a similar distance from the central burn."}}}
{"sequence": "MGPRRLLLVAACFSLCGPLLSARTRA (listed as Homo sapiens) [parstatin (1-26)]", "values": [{"measurement": "inhibition of retinal neovascularization", "setting": "[1]", "value": 65, "unit": "%"}, {"measurement": "reduction of firmly adhering leukocytes vs VEGF-treated controls", "setting": "[2]", "value": 59, "unit": "%"}, {"measurement": "firmly adhering leukocytes", "setting": "[2]", "value": "74±32", "unit": "cells/retina"}, {"measurement": "inhibition of choroidal neovascularization", "setting": "[3]", "value": 62, "unit": "%"}, {"measurement": "inhibition of corneal mean number of vascular vessels", "setting": "[4]", "value": 55, "unit": "%"}, {"measurement": "inhibition of mean number of infiltrated neutrophils", "setting": "[4]", "value": 71, "unit": "%"}]}
{"sequence": "TRARRPESKATNATLDPR (listed as Homo sapiens) [parstatin (24-41), 24-41 (18 amino acids) of human parstatin, hydrophilic fragment]", "values": [{"measurement": "inhibition of retinal neovascularization", "setting": "[1]", "value": 69, "unit": "%"}, {"measurement": "reduction of firmly adhering leukocytes vs VEGF-treated controls", "setting": "[2]", "value": 55, "unit": "%"}, {"measurement": "firmly adhering leukocytes", "setting": "[2]", "value": "81±21", "unit": "cells/retina"}, {"measurement": "inhibition of choroidal neovascularization", "setting": "[3]", "value": 77, "unit": "%"}, {"measurement": "inhibition of corneal mean number of vascular vessels", "setting": "[4]", "value": 68, "unit": "%"}, {"measurement": "inhibition of mean number of infiltrated neutrophils", "setting": "[4]", "value": 75, "unit": "%"}]}
